Data published in PubChem BioAssay AID1963983 (Molecular Pharmacology Branch, DTP, NCI, 2024).
pIC50: −log10 of the molar value.

Test system: 186277-243-T-J2-PDC multi-cell spheroid viability
Experiment: Anticancer human tumor 186277-243-T-J2-PDC patient-derived colon adenocarcinoma cell line growth inhibition [PI3K]
Settings: for pIC50: curve of first compound; for viability, T/C: stronger effect = lower value
Excerpt: Combinatorial screen of targeted agents with the PI3K inhibitors inavolisib, alpelisib, duvelisib, and copanlisib in multi-cell type tumor spheroids
A high-throughput screen of multi-cell type tumor spheroids was designed to identify active combinations of targeted small molecules and PI3K pathway inhibitors. Complex spheroids include a stromal component modeled by human endothelial cells (HUVEC) and fibroblasts modeled by human mesenchymal stem cells (MSCs). The concentration ranges selected for each drug and investigational agent were based upon clinically achievable concentrations if the clinical Cmax of the agent was known.
Compounds. The drugs and investigational agents: inavolisib (NSC800729), alpelisib (NSC765974), duvelisib (NSC772469), copanlisib (NSC816437), ipatasertib (NSC767898), afuresertib (NSC778305), talazoparib (NSC767125), sapanisertib (NSC764658), selumetinib (NSC741078), tovorafenib (DAY101, NSC766906), vemurafenib (NSC761431), ravoxertinib (NSC781343), sotorasib (NSC818433), MRTX1133 (NSC 836407), abemaciclib (NSC 768073), palbociclib (NSC758247), venetoclax (NSC 766270), SY5609 (NSC837396), enzalutamide (NSC755605), and darolutamide (NSC825331), were obtained from the National Cancer Institute (NCI) Developmental Therapeutics Program Chemical Repository. The FDA-approved anticancer drug set is available from the NCI Developmental Therapeutics Program. […] The stock solutions were prepared in dimethyl sulfoxide (DMSO, Sigma-Aldrich, St. Louis, MO, cat. D2650) at 800-fold the tested concentration and stored at -70 degrees C prior to their use. All drugs and investigational agents were tested over a range starting from a high concentration at or near the clinical Cmax and decreasing in half-log increments. If the clinical Cmax for an agent had not been determined, the highest concentration tested was 10 microM.
Cell Culture. All cells were maintained in an incubator at 37 degrees C and 5% CO2 with 95% humidity. The PDC lines were cultured according to standard operating procedures established by the NCI PDMR (https://pdmr.cancer.gov/sops/default.htm). All PDCs were thawed and cultured in Matrigel-coated flasks prepared with a working solution of 1X Ham's F-12 nutrient mix, without supplementation (Invitrogen, Waltham, MA, cat. 11765054), 100 U/mL penicillin-streptomycin (Invitrogen, cat. 15140122), and 2.5% Matrigel (Corning Inc., Corning, NY, cat. 354248) for the first three passages. The 354836-022-R-J1-PDC, 475296-252-R-J1-PDC, and 997726-040-R-J2-PDC lines were cultured in 6A media, which includes advanced DMEM/F-12 (Thermo Fisher Scientific, cat. 12634028), 10 mM HEPES (Thermo Fisher Scientific, cat. 15630080), 1X GlutaMAX supplement (Thermo Fisher Scientific, cat. 35050061), 0.1 mg/mL primocin (InvivoGen, San Diego, CA, cat. ant-pm-2), 10% defined fetal bovine serum, heat inactivated (HyClone Laboratories Inc., Logan, UT, cat. SH30070.03HI), 50% L-WRN conditioned media (ATCC, cat. CRL-3276), 1.25 mM N-Acetyl-L-cysteine (Sigma-Aldrich, cat. A9165), 10 mM nicotinamide (Sigma-Aldrich, cat. N0636), 1X B-27 supplement (Thermo Fisher Scientific, cat. 17504044), 1X N-2 supplement (Thermo Fisher Scientific, cat. 17502048), and 10 microM Y-27632 dihydrochloride (Tocris Bioscience, Bristol, United Kingdom, cat. 1254). The 624824-186-R-J2-PDC line was cultured in 6C/Colon 1B media, which includes all 6A media components plus 50 ng/mL human EGF recombinant protein (Thermo Fisher Scientific, cat. PHG0311). […]

[1] = second compound 0.00316 µM, first compound 0.0316 µM
[2] = second compound 0.00316 µM, first compound 0.1 µM
[3] = second compound 0.00316 µM, first compound 0.316 µM
[4] = second compound 0.00316 µM, first compound 1 µM
[5] = second compound 0.00316 µM, first compound 3.16 µM
[6] = second compound 0.00316 µM, first compound 10 µM
[7] = second compound 0.01 µM, first compound 0.0316 µM
[8] = second compound 0.01 µM, first compound 0.1 µM
[9] = second compound 0.01 µM, first compound 0.316 µM
[10] = second compound 0.01 µM, first compound 1 µM
[11] = second compound 0.01 µM, first compound 3.16 µM
[12] = second compound 0.01 µM, first compound 10 µM
[13] = second compound 0.0316 µM, first compound 0.0316 µM
[14] = second compound 0.0316 µM, first compound 0.1 µM
[15] = second compound 0.0316 µM, first compound 0.316 µM
[16] = second compound 0.0316 µM, first compound 1 µM
[17] = second compound 0.0316 µM, first compound 3.16 µM
[18] = second compound 0.0316 µM, first compound 10 µM
[19] = second compound 0.1 µM, first compound 0.0316 µM
[20] = second compound 0.1 µM, first compound 0.1 µM
[21] = second compound 0.1 µM, first compound 0.316 µM
[22] = second compound 0.1 µM, first compound 1 µM
[23] = second compound 0.1 µM, first compound 3.16 µM
[24] = second compound 0.1 µM, first compound 10 µM
[25] = second compound 0.316 µM, first compound 0.0316 µM
[26] = second compound 0.316 µM, first compound 0.1 µM
[27] = second compound 0.316 µM, first compound 0.316 µM
[28] = second compound 0.316 µM, first compound 1 µM
[29] = second compound 0.316 µM, first compound 3.16 µM
[30] = second compound 0.316 µM, first compound 10 µM
[31] = second compound 1 µM, first compound 0.0316 µM
[32] = second compound 1 µM, first compound 0.1 µM
[33] = second compound 1 µM, first compound 0.316 µM
[34] = second compound 1 µM, first compound 1 µM
[35] = second compound 1 µM, first compound 3.16 µM
[36] = second compound 1 µM, first compound 10 µM
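Further: spheroids exposed to compounds for seven days before viability reading.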
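Wherever viability, T/C is given: 100% = DMSO vehicle control viability.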

`CC(C)NCC(C(=O)N1CCN(c2ncnc3c2C(C)CC3O)CC1)c1ccc(Cl)cc1` (stereo unspecified) + COc1c(OCCCN2CCOCC2)ccc2c3n(c(=NC(=O)c4cnc(N)nc4)nc12)CCN3 was tested, and the pIC50 (second compound 0.00316 µM) was 6.04, the pIC50 (second compound 0.01 µM) was 6.26 and the pIC50 (second compound 0.0316 µM) was 6.75. The pIC50 (second compound 0.1 µM) was greater than 7.50, the pIC50 (second compound 0.316 µM) was greater than 7.50 and the pIC50 (second compound 1 µM) was greater than 7.50. For the same compound, the viability, T/C [1] was 93.9%, the viability, T/C [2] was 86.5% and the viability, T/C [3] was 73.1%. For the same compound, the viability, T/C [4] was 46.9%, the viability, T/C [5] was 30.9% and the viability, T/C [6] was 20.5%. For the same compound, the viability, T/C [7] was 102%, the viability, T/C [8] was 93.2% and the viability, T/C [9] was 68.8%. For the same compound, the viability, T/C [10] was 29.2%, the viability, T/C [11] was 20.6% and the viability, T/C [12] was 12.2%. For the same compound, the viability, T/C [13] was 69.4%, the viability, T/C [14] was 62.7% and the viability, T/C [15] was 37.1%. For the same compound, the viability, T/C [16] was 23.2%, the viability, T/C [17] was 15.2% and the viability, T/C [18] was 10.8%. For the same compound, the viability, T/C [19] was 21.8%, the viability, T/C [20] was 16.4% and the viability, T/C [21] was 11%. For the same compound, the viability, T/C [22] was 7.77%, the viability, T/C [23] was 7.84% and the viability, T/C [24] was 5.5%. It also gave a viability, T/C [25] of 5.04%, a viability, T/C [26] of 3.98% and a viability, T/C [27] of 5.15%. The viability, T/C [28] was 10.1%, the viability, T/C [29] was 6.04% and the viability, T/C [30] was 8.76%. It also gave a viability, T/C [31] of 1.65%, a viability, T/C [32] of 3.37% and a viability, T/C [33] of 1.85%. The viability, T/C [34] was 2.98%, the viability, T/C [35] was 2.47% and the viability, T/C [36] was 2.26%.
`C#Cc1c(F)ccc2cc(O)cc(-c3ncc4c(N5CC6CCC(C5)N6)nc(OCC56CCCN5CC(F)C6)nc4c3F)c12` (stereo unspecified) + COc1c(OCCCN2CCOCC2)ccc2c3n(c(=NC(=O)c4cnc(N)nc4)nc12)CCN3 showed a pIC50 (second compound 0.00316 µM) of 7.19, a pIC50 (second compound 0.01 µM) greater than 7.50 and a pIC50 (second compound 0.0316 µM) greater than 7.50. For the same compound, the pIC50 (second compound 0.1 µM) was greater than 7.50, the pIC50 (second compound 0.316 µM) was greater than 7.50 and the pIC50 (second compound 1 µM) was greater than 7.50. For the same compound, the viability, T/C [1] was 78.4%, the viability, T/C [2] was 32.4% and the viability, T/C [3] was 17.5%. The viability, T/C [4] was 8.98%, the viability, T/C [5] was 9.36% and the viability, T/C [6] was 6.51%. For the same compound, the viability, T/C [7] was 47.8%, the viability, T/C [8] was 20.9% and the viability, T/C [9] was 13.7%. For the same compound, the viability, T/C [10] was 10.1%, the viability, T/C [11] was 8.35% and the viability, T/C [12] was 5.59%. It also gave a viability, T/C [13] of 16.9%, a viability, T/C [14] of 7.55% and a viability, T/C [15] of 10.6%. It also gave a viability, T/C [16] of 3.62%, a viability, T/C [17] of 3.8% and a viability, T/C [18] of 4.03%. For the same compound, the viability, T/C [19] was 5.72%, the viability, T/C [20] was 4.46% and the viability, T/C [21] was 3%. For the same compound, the viability, T/C [22] was 3.2%, the viability, T/C [23] was 1.5% and the viability, T/C [24] was 0.18%. For the same compound, the viability, T/C [25] was 3.44%, the viability, T/C [26] was 0.58% and the viability, T/C [27] was 0.7%. For the same compound, the viability, T/C [28] was 0.32%, the viability, T/C [29] was 0.85% and the viability, T/C [30] was 0.1%. For the same compound, the viability, T/C [31] was 0.56%, the viability, T/C [32] was 0.38% and the viability, T/C [33] was 0.53%. It also gave a viability, T/C [34] of 0.17%, a viability, T/C [35] of 0.22% and a viability, T/C [36] of 0.16%.
Work on `CC(Cn1ccc(-c2ccc(C#N)c(Cl)c2)n1)NC(=O)c1cc(C(C)O)[nH]n1` (stereo unspecified) + COc1c(OCCCN2CCOCC2)ccc2c3n(c(=NC(=O)c4cnc(N)nc4)nc12)CCN3 yielded a pIC50 (second compound 0.00316 µM) of less than 5.00, a pIC50 (second compound 0.01 µM) of less than 5.00 and a pIC50 (second compound 0.0316 µM) of less than 5.00. It also gave a pIC50 (second compound 0.1 µM) greater than 7.50, a pIC50 (second compound 0.316 µM) greater than 7.50 and a pIC50 (second compound 1 µM) greater than 7.50. It also gave a viability, T/C [1] of 94.2%, a viability, T/C [2] of 92.1% and a viability, T/C [3] of 101%. For the same compound, the viability, T/C [4] was 105%, the viability, T/C [5] was 116% and the viability, T/C [6] was 86.9%. For the same compound, the viability, T/C [7] was 99.2%, the viability, T/C [8] was 100% and the viability, T/C [9] was 101%. It also gave a viability, T/C [10] of 108%, a viability, T/C [11] of 93.3% and a viability, T/C [12] of 90.1%. For the same compound, the viability, T/C [13] was 74.7%, the viability, T/C [14] was 74.9% and the viability, T/C [15] was 69.2%. The viability, T/C [16] was 70.9%, the viability, T/C [17] was 75.5% and the viability, T/C [18] was 58%. For the same compound, the viability, T/C [19] was 16.7%, the viability, T/C [20] was 17.3% and the viability, T/C [21] was 17.4%. The viability, T/C [22] was 15.9%, the viability, T/C [23] was 19% and the viability, T/C [24] was 17%. For the same compound, the viability, T/C [25] was 6.31%, the viability, T/C [26] was 6.68% and the viability, T/C [27] was 3.61%. For the same compound, the viability, T/C [28] was 6.24%, the viability, T/C [29] was 6.1% and the viability, T/C [30] was 4.81%. It also gave a viability, T/C [31] of 3.61%, a viability, T/C [32] of 3.8% and a viability, T/C [33] of 2.93%. For the same compound, the viability, T/C [34] was 2.25%, the viability, T/C [35] was 3.36% and the viability, T/C [36] was 2.45%.
